Where “and” joins values, the source holds several entries; their conditions need not be identical. Identical values can stand only once. Toxic doses and inconclusive results are not listed. The calls were made as follows: active = survival T/C of 150% or more; inactive = T/C below 125% in these data. Peptide text beside a SMILES is read from it.
System: P388 leukemia ip, CD2F1 mice, survival T/C
Assay: NCI In Vivo Anticancer Drug Screen. Data for tumor model P388 Leukemia (intraperitoneal) in CD2F1 (CDF1) mice
Settings: endpoint: median survival time, higher = longer survival
How it was run: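 Mice carrying the transplanted tumor received test compound or vehicle. Survival was recorded in each group, and the value is the treated-group measurement divided by that of the vehicle-treated control group.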

[1] = dose: 12.5 mg/kg/injection, schedule: Q01DX009 (ip), vehicle: saline with Tween-80
[2] = dose: 25.0 mg/kg/injection, schedule: Q01DX009 (ip), vehicle: saline with Tween-80
[3] = dose: 50.0 mg/kg/injection, schedule: Q01DX009 (ip), vehicle: saline
[4] = dose: 100.0 mg/kg/injection, schedule: Q01DX009 (ip), vehicle: saline
[5] = dose: 12.5 mg/kg/injection, schedule: Q01DX009 (ip), vehicle: water
[6] = dose: 25.0 mg/kg/injection, schedule: Q01DX009 (ip), vehicle: water
[7] = dose: 50.0 mg/kg/injection, schedule: Q01DX009 (ip), vehicle: water
[8] = dose: 100.0 mg/kg/injection, schedule: Q01DX009 (ip), vehicle: water
[9] = dose: 200.0 mg/kg/injection, schedule: Q01DX009 (ip), vehicle: water
[10] = dose: 50.0 mg/kg/injection, schedule: Q01DX009 (ip), vehicle: saline with Tween-80
[11] = dose: 100.0 mg/kg/injection, schedule: Q01DX009 (ip), vehicle: saline with Tween-80
[12] = dose: 50.0 mg/kg/injection, schedule: Q01DX005 (ip), vehicle: Klucel (hydroxypropylcellulose) (HPC)
[13] = dose: 100.0 mg/kg/injection, schedule: Q01DX005 (ip), vehicle: Klucel (hydroxypropylcellulose) (HPC)
[14] = dose: 200.0 mg/kg/injection, schedule: Q01DX005 (ip), vehicle: Klucel (hydroxypropylcellulose) (HPC)
[15] = dose: 60.0 mg/kg/injection, schedule: Q01DX005 (ip), vehicle: saline with Tween-80
[16] = dose: 120.0 mg/kg/injection, schedule: Q01DX005 (ip), vehicle: saline with Tween-80
[17] = dose: 50.0 mg/kg/injection, schedule: Q01DX005 (ip), vehicle: saline
[18] = dose: 100.0 mg/kg/injection, schedule: Q01DX005 (ip), vehicle: saline

Measured: T/C

NC(=O)c1ccc2c(=O)c(C(=O)O)c[nH]c2c1
inactive: dose: 6.25 mg/kg/injection, schedule: Q01DX009 (ip), vehicle: saline with Tween-80 92 % of control | [1] 95 % of control | [2] 94 % of control

O=C(O)CC1(C(=O)O)CCC(OCc2ccccc2)CC1 (stereo unspecified)
inactive: [3] 102 % of control | [4] 92 % of control

Cn1nnc2c1CN=CN2
inactive: [3] 117 % of control | [4] 103 % of control | dose: 200.0 mg/kg/injection, schedule: Q01DX009 (ip), vehicle: saline 112 % of control

COP(=O)(N/N=C/C(=O)O)OC
inactive: [5] 104 % of control | [6] 103 % of control | [7] 101 % of control | [8] 96 % of control | [9] 95 % of control

CCOC(=O)c1cnc(N)nc1CCC(=O)O
inactive: dose: 37.5 mg/kg/injection, schedule: Q01DX009 (ip), vehicle: saline with Tween-80 107 % of control | dose: 75.0 mg/kg/injection, schedule: Q01DX009 (ip), vehicle: saline with Tween-80 102 % of control | dose: 150.0 mg/kg/injection, schedule: Q01DX009 (ip), vehicle: saline with Tween-80 107 % of control

CC(=O)C(Cc1ccccc1)NC(=O)C(F)(F)F (stereo unspecified)
inactive: [10] 93 % of control | [11] 90 % of control | dose: 200.0 mg/kg/injection, schedule: Q01DX009 (ip), vehicle: saline with Tween-80 98 % of control

CC(=O)Oc1cc2c(cc1Cc1ccc3c(c1)OCO3)OCO2
inactive: [12] 101 % of control | [13] 95 % of control | [14] 100 % of control

Cc1ncc(CO)c(C2NOCc3nscc32)c1O (stereo unspecified)
inactive: dose: 3.5 mg/kg/injection, schedule: Q04DX003 (ip), vehicle: saline 100 % of control | dose: 7.0 mg/kg/injection, schedule: Q04DX003 (ip), vehicle: saline 95 % of control | dose: 14.0 mg/kg/injection, schedule: Q04DX003 (ip), vehicle: saline 100 % of control

N=C(N)C(Cl)(Cl)Cl
inactive: [1] 108 % of control | [2] 106 % of control | [10] 101 % of control and 106 % of control

CCCCCCCCCC1=C(C#N)C(=O)OCCN1C
inactive: [15] 92 % of control | [16] 93 % of control

CCCC1=CC(C)(C)CC(C)=C1 (tested in a mixture with another compound)
inactive: dose: 50.0 mg/kg/injection, schedule: Q01DX009 (ip), vehicle: saline sonified 95 % of control | dose: 100.0 mg/kg/injection, schedule: Q01DX009 (ip), vehicle: saline sonified 95 % of control | dose: 200.0 mg/kg/injection, schedule: Q01DX009 (ip), vehicle: saline sonified 90 % of control

Nc1cc2c(c[n+](CCCCCCCC[n+]3cc4c5ccccc5c(N)cc4c4ccccc43)c3ccccc23)c2ccccc12
active: dose: 1.56 mg/kg/injection, schedule: Q04DX003 (ip), vehicle: other 161 % of control | dose: 3.13 mg/kg/injection, schedule: Q04DX003 (ip), vehicle: other 158 % of control and 161 % of control | dose: 6.25 mg/kg/injection, schedule: Q04DX003 (ip), vehicle: other 152 % of control and 205 % of control | dose: 12.5 mg/kg/injection, schedule: Q04DX003 (ip), vehicle: other 168 % of control
inactive: dose: 25.0 mg/kg/injection, schedule: Q04DX003 (ip), vehicle: other 93 % of control | dose: 50.0 mg/kg/injection, schedule: Q04DX003 (ip), vehicle: other 86 % of control

Cn1c(=O)c2[nH]c(CN(CCCl)CCCl)nc2n(C)c1=O
inactive: dose: 0.66 mg/kg/injection, schedule: Q01DX009 (ip), vehicle: saline with Tween-80 109 % of control | dose: 1.0 mg/kg/injection, schedule: Q01DX009 (ip), vehicle: saline with Tween-80 115 % of control | dose: 6.6 mg/kg/injection, schedule: Q04DX003 (ip), vehicle: saline with Tween-80 95 % of control | dose: 10.0 mg/kg/injection, schedule: Q04DX003 (ip), vehicle: saline with Tween-80 113 % of control
active: [1] 263 % of control | dose: 12.5 mg/kg/injection, schedule: Q04DX003 (ip), vehicle: saline with Tween-80 150 % of control | [2] 219 % of control | dose: 25.0 mg/kg/injection, schedule: Q04DX003 (ip), vehicle: saline with Tween-80 163 % of control | dose: 50.0 mg/kg/injection, schedule: Q04DX003 (ip), vehicle: saline with Tween-80 218 % of control

NC(Cc1ccccc1)C(=O)NCC(=O)NC(Cc1ccccc1)C(=O)NCC(=O)O (stereo unspecified) (H-FGFG-OH; configuration not given here)
inactive: [12] 96 % of control | [13] 98 % of control | [14] 102 % of control

N#CO
inactive: [11] 90 % of control

O=C(/N=C1\N=Nc2c(O)c(C3(c4nc5n(c4O)/C(=N/C(=O)Nc4ccc(Cl)cc4)N=N5)Cc4ccccc4C3=O)nn21)Nc1ccc(Cl)cc1 (stereo unspecified)
inactive: [15] 101 % of control | [16] 94 % of control | dose: 240.0 mg/kg/injection, schedule: Q01DX005 (ip), vehicle: saline with Tween-80 94 % of control

CC(C)NC(=O)OCc1c(COC(=O)NC(C)C)c(S(=O)(=O)c2ccccc2)n2c1CCC2
inactive: dose: 25.0 mg/kg/injection, schedule: Q01DX005 (ip), vehicle: saline with Tween-80 89 % of control | dose: 50.0 mg/kg/injection, schedule: Q01DX005 (ip), vehicle: saline with Tween-80 86 % of control | dose: 100.0 mg/kg/injection, schedule: Q01DX005 (ip), vehicle: saline with Tween-80 90 % of control | dose: 200.0 mg/kg/injection, schedule: Q01DX005 (ip), vehicle: saline with Tween-80 93 % of control

CC(=O)C1=CC(C)(C)OC1=O
inactive: dose: 100.0 mg/kg/injection, schedule: Q04DX002 (ip), vehicle: saline with Tween-80 103 % of control | dose: 200.0 mg/kg/injection, schedule: Q04DX002 (ip), vehicle: saline with Tween-80 109 % of control

CN(C)c1c(-c2ccc(Cl)cc2)cc(-c2ccccc2)[nH]c1=O
inactive: dose: 1.56 mg/kg/injection, schedule: Q01DX009 (ip), vehicle: Klucel (hydroxypropylcellulose) (HPC) 101 % of control | dose: 3.13 mg/kg/injection, schedule: Q01DX009 (ip), vehicle: Klucel (hydroxypropylcellulose) (HPC) 101 % of control | dose: 6.25 mg/kg/injection, schedule: Q01DX009 (ip), vehicle: Klucel (hydroxypropylcellulose) (HPC) 100 % of control | dose: 12.5 mg/kg/injection, schedule: Q01DX009 (ip), vehicle: Klucel (hydroxypropylcellulose) (HPC) 99 % of control and 89 % of control | dose: 50.0 mg/kg/injection, schedule: Q01DX009 (ip), vehicle: Klucel (hydroxypropylcellulose) (HPC) 101 % of control | dose: 100.0 mg/kg/injection, schedule: Q01DX009 (ip), vehicle: Klucel (hydroxypropylcellulose) (HPC) 106 % of control

COC1C(/C=[N+](\C)[O-])OC2OC(C)(C)OC21 (stereo unspecified)
inactive: [17] 102 % of control | [18] 100 % of control | dose: 200.0 mg/kg/injection, schedule: Q01DX005 (ip), vehicle: saline 93 % of control

O=C(O)C1C2C(=O)N(CO)C(=O)C2C(C(=O)O)C2C3C(=O)N(CO)C(=O)C3C12 (stereo unspecified)
inactive: [5] 108 % of control | [6] 99 % of control | [7] 102 % of control and 105 % of control and 92 % of control | [8] 107 % of control and 117 % of control and 120 % of control | [9] 114 % of control and 120 % of control

COc1cc2c(c(OC)c1OC)-c1ccc(OC)c(=O)cc1CC=C2
inactive: dose: 1.25 mg/kg/injection, schedule: Q01DX009 (ip), vehicle: Klucel (hydroxypropylcellulose) (HPC) 124 % of control | dose: 2.5 mg/kg/injection, schedule: Q01DX009 (ip), vehicle: Klucel (hydroxypropylcellulose) (HPC) 119 % of control and 120 % of control | dose: 5.0 mg/kg/injection, schedule: Q01DX009 (ip), vehicle: Klucel (hydroxypropylcellulose) (HPC) 100 % of control
active: dose: 10.0 mg/kg/injection, schedule: Q01DX009 (ip), vehicle: Klucel (hydroxypropylcellulose) (HPC) 170 % of control

C=CC(C)(C)c1cc(O)c(OC)cc1O
inactive: [12] 95 % of control | [13] 102 % of control | [14] 100 % of control

C=C(C)[C@]12CC(C)C34OC(/C=C\C=C\CCCCCCCCC)(O[C@@H]1[C@@H]3[C@@H]1O[C@]1(CO)[C@@H](O)[C@]1(O)C(=O)C(C)=C[C@@H]41)O2 (stereo partly specified)
active: dose: 0.75 mg/kg/injection, schedule: Q01DX009 (ip), vehicle: alcohol 160 % of control | dose: 1.5 mg/kg/injection, schedule: Q01DX009 (ip), vehicle: alcohol 160 % of control and 163 % of control

C[Si](C)(C)CN1CCCC1
inactive: [17] 108 % of control | [18] 101 % of control
